From US11713338B2, “Cyclic peptides multimers targeting α-4-β-7 integrin” (priority 2016, dated 2023)

Target: T1, recombinant integrin α4β7 (Homo sapiens, UniProt P13612+P26010, DEL724-798)
T1 construct: purchased R&D Systems 5397-A3-050
T1 sequence (P13612 34-970 limits assumed): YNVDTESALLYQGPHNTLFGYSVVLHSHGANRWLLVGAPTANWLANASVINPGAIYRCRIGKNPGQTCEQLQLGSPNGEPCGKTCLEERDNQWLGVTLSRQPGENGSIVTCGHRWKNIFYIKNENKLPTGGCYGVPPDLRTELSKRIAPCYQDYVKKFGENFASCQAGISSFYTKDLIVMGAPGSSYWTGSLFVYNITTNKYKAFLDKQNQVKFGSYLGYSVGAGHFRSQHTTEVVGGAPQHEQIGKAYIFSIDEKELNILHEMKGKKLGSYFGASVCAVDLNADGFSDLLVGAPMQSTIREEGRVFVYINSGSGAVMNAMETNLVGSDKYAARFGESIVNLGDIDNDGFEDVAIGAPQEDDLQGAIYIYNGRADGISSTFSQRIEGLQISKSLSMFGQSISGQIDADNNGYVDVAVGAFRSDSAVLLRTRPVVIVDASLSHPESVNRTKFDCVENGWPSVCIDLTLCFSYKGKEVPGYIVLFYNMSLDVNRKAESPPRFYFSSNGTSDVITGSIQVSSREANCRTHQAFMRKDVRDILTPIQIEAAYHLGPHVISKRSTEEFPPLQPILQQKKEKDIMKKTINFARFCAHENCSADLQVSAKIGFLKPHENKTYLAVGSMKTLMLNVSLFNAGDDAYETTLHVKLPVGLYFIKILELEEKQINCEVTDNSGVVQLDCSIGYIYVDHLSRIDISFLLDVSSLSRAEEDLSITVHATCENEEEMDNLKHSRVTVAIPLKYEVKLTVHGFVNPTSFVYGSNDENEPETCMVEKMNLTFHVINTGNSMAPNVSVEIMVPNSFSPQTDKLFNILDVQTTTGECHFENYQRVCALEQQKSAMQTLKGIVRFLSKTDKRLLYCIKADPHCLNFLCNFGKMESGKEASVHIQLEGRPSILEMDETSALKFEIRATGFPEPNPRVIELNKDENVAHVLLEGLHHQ
T1 sequence (P26010 20-723 limits assumed): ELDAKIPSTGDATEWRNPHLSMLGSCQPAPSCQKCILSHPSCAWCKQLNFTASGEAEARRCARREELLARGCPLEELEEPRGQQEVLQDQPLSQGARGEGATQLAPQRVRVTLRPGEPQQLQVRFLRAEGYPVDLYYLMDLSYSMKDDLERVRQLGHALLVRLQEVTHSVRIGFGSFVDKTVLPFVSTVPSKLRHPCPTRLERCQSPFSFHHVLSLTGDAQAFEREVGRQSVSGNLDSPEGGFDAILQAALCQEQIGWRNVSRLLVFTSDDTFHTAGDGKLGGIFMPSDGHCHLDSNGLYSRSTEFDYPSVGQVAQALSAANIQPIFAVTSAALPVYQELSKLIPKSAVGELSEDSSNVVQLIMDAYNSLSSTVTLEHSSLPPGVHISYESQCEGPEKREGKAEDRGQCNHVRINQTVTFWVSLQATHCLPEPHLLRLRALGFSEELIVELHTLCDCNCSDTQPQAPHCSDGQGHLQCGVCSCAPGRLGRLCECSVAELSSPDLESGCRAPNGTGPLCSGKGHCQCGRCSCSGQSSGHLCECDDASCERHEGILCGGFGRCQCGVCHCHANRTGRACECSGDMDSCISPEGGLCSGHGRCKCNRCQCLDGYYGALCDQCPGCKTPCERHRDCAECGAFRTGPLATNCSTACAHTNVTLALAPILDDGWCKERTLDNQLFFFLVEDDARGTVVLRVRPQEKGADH
Test: Integrin α4β7—MAdCAM-1 ELISA competition assay
Format: binding
Settings: for IC50: read-out: ELISA a4b7 Assay IC50; for ELISA Assay Ratio b1/b7: ratio of a4b1 to a4b7 ELISA IC50

Row | SMILES | IC50 [nM] | ELISA Assay Ratio b1/b7
1 | CC(C)C[C@@H]1NC(=O)C[C@H]2CCCN2C(=O)[C@H](Cc2ccc(CN)cc2)NC(=O)[C@@H]2CCCN2[C@H](C(=O)NC(C)(C)C)[C@H](C)NC(=O)[C@H]([C@@H](C)O)NC(=O)[C@H](CC(=O)O)NC1=O [Compound 230] | 120 | 
2 | CC(C)C[C@@H]1NC(=O)C[C@H](CCCCN)NC(=O)[C@H](Cc2ccc(CN)cc2)NC(=O)[C@@H]2CCCN2[C@H](C(=O)NC(C)(C)C)[C@H](C)NC(=O)[C@H](C(C)C)NC(=O)[C@H](CC(=O)O)NC1=O [Compound 254] | 55 | 33.0
3 | CC(C)C[C@@H]1NC(=O)C[C@H](CCCCN)NC(=O)[C@H](Cc2cccc(I)c2)NC(=O)[C@@H]2CCCN2[C@H](C(=O)NC(C)(C)C)[C@H](C)NC(=O)[C@H]([C@@H](C)O)NC(=O)[C@H](CC(=O)O)NC1=O [Compound 255] | 43 | 
4 | COc1ccccc1-c1cccc(C[C@@H]2NC(=O)[C@@H]3CCCN3[C@H](C(=O)NC(C)(C)C)[C@H](C)NC(=O)[C@H]([C@@H](C)O)NC(=O)[C@H](CC(=O)O)NC(=O)[C@H](CC(C)C)NC(=O)C[C@H](CCCCN)NC2=O)c1 [Compound 257] | 58 | 
5 | CC(C)C[C@@H]1NC(=O)C[C@H](CCCCN)NC(=O)[C@H](Cc2ccc(-c3ccccc3OC(F)(F)F)cc2)NC(=O)[C@@H]2CCCN2[C@H](C(=O)NC(C)(C)C)[C@H](C)NC(=O)[C@H]([C@@H](C)O)NC(=O)[C@H](CC(=O)O)NC1=O [Compound 262] | 80 | 
6 | CC(C)C[C@@H]1NC(=O)C[C@H](CCCCN)NC(=O)[C@H](Cc2ccccc2)N(C)C(=O)[C@@H]2CCCN2[C@H](C(=O)NC(C)(C)C)[C@H](C)NC(=O)[C@H]([C@@H](C)O)NC(=O)[C@H](CC(=O)O)NC1=O [Compound 264] | 117 | 
7 | CC(C)C[C@@H]1NC(=O)C[C@H](CCCCN)NC(=O)[C@H](Cc2cccc(-c3ccc(F)c(F)c3)c2)NC(=O)[C@@H]2CCCN2[C@H](C(=O)NC(C)(C)C)[C@H](C)NC(=O)[C@H]([C@@H](C)O)NC(=O)[C@H](CC(=O)O)NC1=O [Compound 267] | 44 | 
8 | Cc1cccc(C)c1-c1ccccc1C[C@@H]1NC(=O)[C@@H]2CCCN2[C@H](C(=O)NC(C)(C)C)[C@H](C)NC(=O)[C@H]([C@@H](C)O)NC(=O)[C@H](CC(=O)O)NC(=O)[C@H](CC(C)C)NC(=O)C[C@H](CCCCN)NC1=O [Compound 272] | 41 | 58.1
9 | Cc1noc(C)c1-c1ccccc1C[C@H]1NC(=O)[C@@H]2CCCN2[C@H](C(=O)NC(C)(C)C)[C@H](C)NC(=O)[C@H]([C@@H](C)O)NC(=O)[C@H](CC(=O)O)NC(=O)[C@H](CC(C)C)NC(=O)C[C@H](CCCCN)NC1=O [Compound 276] | 134 | 106.2
10 | COc1cccc(Cl)c1-c1ccccc1C[C@@H]1NC(=O)[C@@H]2CCCN2[C@H](C(=O)NC(C)(C)C)[C@H](C)NC(=O)[C@H]([C@@H](C)O)NC(=O)[C@H](CC(=O)O)NC(=O)[C@H](CC(C)C)NC(=O)C[C@H](CCCCN)NC1=O [Compound 279] | 100 | 
11 | CC(C)C[C@@H]1NC(=O)C[C@H](CCCCN)NC(=O)C2(CCc3ccccc3C2)NC(=O)[C@@H]2CCCN2[C@H](C(=O)NC(C)(C)C)[C@H](C)NC(=O)[C@H]([C@@H](C)O)NC(=O)[C@H](CC(=O)O)NC1=O (stereo partly shown) [Compound 282] | 119 | 
12 | CC(C)C[C@@H]1NC(=O)C[C@H](CCCCN)NC(=O)[C@H](Cc2ccccc2-c2cc(C(F)(F)F)ccc2C(F)(F)F)NC(=O)[C@@H]2CCCN2[C@H](C(=O)NC(C)(C)C)[C@H](C)NC(=O)[C@H]([C@@H](C)O)NC(=O)[C@H](CC(=O)O)NC1=O [Compound 286] | 64 | 
13 | CC(C)C[C@@H]1NC(=O)C[C@H](CCCCN)NC(=O)[C@H](Cc2ccccc2-c2cc(C(F)(F)F)ccc2C(F)(F)F)NC(=O)[C@@H]2CCCN2[C@H](C(=O)NC(C)(C)C)[C@H](C)NC(=O)[C@H]([C@@H](C)O)NC(=O)[C@H](CC(=O)O)NC1=O [Compound 287] | 84 | 
14 | CC(C)C[C@@H]1NC(=O)C[C@H](CCCCN)NC(=O)[C@H](Cc2ccccc2-c2cccnc2)NC(=O)[C@@H]2CCCN2[C@H](C(=O)NC(C)(C)C)[C@H](C)NC(=O)[C@H]([C@@H](C)O)NC(=O)[C@H](CC(=O)O)NC1=O [Compound 292] | 30 | 
15 | CC(C)C[C@@H]1NC(=O)C[C@H](CCCCN)NC(=O)[C@H](Cc2ccccc2-c2ncccc2Br)NC(=O)[C@@H]2CCCN2[C@H](C(=O)NC(C)(C)C)[C@H](C)NC(=O)[C@H]([C@@H](C)O)NC(=O)[C@H](CC(=O)O)NC1=O [Compound 294] | 45 | 
16 | CC(C)C[C@@H]1NC(=O)C[C@H](CCCCN)NC(=O)[C@H](Cc2ccccc2-c2cccnc2Br)NC(=O)[C@@H]2CCCN2[C@H](C(=O)NC(C)(C)C)[C@H](C)NC(=O)[C@H]([C@@H](C)O)NC(=O)[C@H](CC(=O)O)NC1=O [Compound 297] | 37 | 
17 | COc1cccc(Cl)c1-c1cccc(C[C@@H]2NC(=O)[C@@H]3CCCN3[C@H](C(=O)NC(C)(C)C)[C@H](C)NC(=O)[C@H]([C@@H](C)O)NC(=O)[C@H](CC(=O)O)NC(=O)[C@H](CC(C)C)NC(=O)C[C@H](CCCCN)NC2=O)c1 [Compound 298] | 76 | 
18 | CC(C)C[C@@H]1NC(=O)c2ccc(Br)c(c2)CNC(=O)[C@H](Cc2ccc(O)cc2)NC(=O)[C@@H]2CCCN2[C@H](C(=O)NC(C)(C)C)[C@H](C)NC(=O)[C@H]([C@@H](C)O)NC(=O)[C@H](CC(=O)O)NC1=O [Compound 336] | 162 | 5.6
19 | C[C@@H]1NC(=O)[C@H]([C@@H](C)O)NC(=O)[C@H](CC(=O)O)NC(=O)[C@H](CC(C)(C)C)NC(=O)c2ccc(-c3ccnc4ccccc34)c(c2)CNC(=O)[C@@H]2CCCN2[C@@H]1C(=O)NC(C)(C)C [Compound 355] | 48 | 
20 | CC(C)C[C@@H]1NC(=O)c2cccc(c2)CN(Cc2ccccc2)C(=O)[C@@H]2CCCN2[C@H](C(=O)NC(C)(C)C)[C@H](C)NC(=O)[C@H]([C@@H](C)O)NC(=O)[C@H](CC(=O)O)NC1=O [Compound 357] | 102 | 
21 | CC(C)C[C@@H]1NC(=O)c2ccc(N3CCOCC3)c(c2)CNC(=O)[C@@H]2CCCN2[C@H](C(=O)NC(C)(C)C)[C@H](C)NC(=O)[C@H]([C@@H](C)O)NC(=O)[C@H](CC(=O)O)NC1=O [Compound 379] | 33 | 4.9
22 | CC(C)C[C@@H]1NC(=O)c2ccc(N(C)C)c(c2)CNC(=O)[C@@H]2CCCN2[C@H](C(=O)NC(C)(C)C)[C@H](C)NC(=O)[C@H]([C@@H](C)O)NC(=O)[C@H](CC(=O)O)NC1=O [Compound 380] | 41 | 
23 | CC(C)C[C@@H]1NC(=O)c2ccc(-c3cccc(CN)c3)c(c2)CNC(=O)[C@@H]2CCCN2[C@H](C(=O)NC(C)(C)C)[C@H](C)NC(=O)[C@H]([C@@H](C)O)NC(=O)[C@H](CC(=O)O)NC1=O [Compound 382] | 12 | 
